Measured values from the NIST ThermoML archive (doi:10.1021/je800077r).
± gives the expanded uncertainty stated by the source.

Tests used:
[1] = xn = mol fraction of the nth substance listed; details: 101 kPa, Liquid; for speed of sound: Sing-around technique in a fixed-path interferometer; for mass density: Vibrating tube method
[2] = refractive index (Na D-line) (dimensionless); xn = mol fraction of the nth substance listed; details: 101 kPa, Liquid, Standard Abbe refractometry

| speed of sound ([1]; 293.15 K, x1 = 1) | mass density ([1]; 293.15 K, x1 = 1) | speed of sound ([1]; 298.15 K, x1 = 1) | mass density ([1]; 298.15 K, x1 = 1) | speed of sound ([1]; 303.15 K, x1 = 1) | mass density ([1]; 303.15 K, x1 = 1) | refractive index ([2]; 293.15 K, x1 = 1) | refractive index ([2]; 298.15 K, x1 = 1) | refractive index ([2]; 303.15 K, x1 = 1) | Compound | speed of sound ([1]; 293.15 K, x2 = 0) | mass density ([1]; 293.15 K, x2 = 0) | speed of sound ([1]; 298.15 K, x2 = 0) | mass density ([1]; 298.15 K, x2 = 0) | speed of sound ([1]; 303.15 K, x2 = 0) | mass density ([1]; 303.15 K, x2 = 0) | refractive index ([2]; 293.15 K, x2 = 0) | refractive index ([2]; 298.15 K, x2 = 0) | refractive index ([2]; 303.15 K, x2 = 0) |
| --- | --- | --- | --- | --- | --- | --- | --- | --- | --- | --- | --- | --- | --- | --- | --- | --- | --- | --- |
|  |  |  |  |  |  |  |  |  | CCOC(C)=O [ethyl acetate] + CCCCCCn1cc[n+](C)c1.F[P-](F)(F)(F)(F)F | 1162 ± 1 m/s | 900.5 ± 0.1 kg/m3 | 1141 ± 1 m/s | 894.4 ± 0.1 kg/m3 | 1111 ± 1 m/s | 888.2 ± 0.1 kg/m3 | 1.37241 ± 0.00061 | 1.36977 ± 0.00061 | 1.36712 ± 0.00062 |
| 1100 ± 2 m/s | 659.5 ± 0.3 kg/m3 | 1078 ± 2 m/s | 654.9 ± 0.3 kg/m3 | 1055 ± 2 m/s | 650.4 ± 0.3 kg/m3 | 1.37495 ± 0.00067 | 1.37217 ± 0.00067 | 1.36936 ± 0.00067 | CCCCCC [hexane] + CCOC(C)=O |  |  |  |  |  |  |  |  |  |
